The values that follow come from US11407831B2, “Pharmaceutical composition administered in combination with substituted dihydropyrrolopyrazole compound and immunotherapeutic agent” (UBE INDUSTRIES, LTD., priority 2017, dated 2022).

Assay [1] deals with Mouse melanoma cells (B16F10). The assay can be described thus: Mouse Melanoma (B16F10) Cell Growth Inhibition Test. The class given is cell-based. The conditions noted are these: B16-F10, 72 h, 3 days culture, CellTiter-Glo (ATP). As to the method: Mouse melanoma cells (B16F10) (Cell Resource Center for Biomedical Research, Institute of Development, Aging and Cancer, Tohoku University, Cat. No. TKG0348) were cultured in DMEM medium (REF. 11965-092 manufactured by GIBCO/Thermo Fisher Scientific Inc.) containing 10% FBS (REF. 10082-147 manufactured by GIBCO/Thermo Fisher Scientific Inc.), 1% penicillin/streptomycin/amphotericin B (REF. 15240-096 manufactured by GIBCO/Thermo Fisher Scientific Inc.), and 1 mM sodium pyruvate (REF. 11360-070 manufactured by GIBCO/Thermo Fisher Scientific Inc.) and inoculated at 0.5 to 2.0×10^3 cells/well to a 96-well plate. After overnight culture in a carbon dioxide incubator, culture was further performed for 3 days in a medium containing a solution of a test compound in DMSO (final DMSO concentration: 0.1%), and then, the amount of ATP was measured using CellTiter-Glo (manufactured by Promega Corp.).
The rate of inhibition of cell growth at each concentration was calculated from the test compound concentration and the amount of ATP, and the concentration of the test compound necessary for inhibiting 50% of cell growth (GI50 value) was calculated by using EXSUS (version 8.1.0, manufactured by CAC Croit Corp.).

In assay [2] the test system is Mouse melanoma cells (B16F10) subcutaneously transplanted. Briefly: In Vivo Tumor Growth Inhibition Test in Mouse Melanoma Cell (B16F10)-Subcutaneously Transplanted Mouse. The conditions noted are these: day 7. The arrangement: species or system C57BL/6 mice. How it is done:
Mouse melanoma cells (B16F10) (Cell Resource Center for Biomedical Research, Institute of Development, Aging and Cancer, Tohoku University, Cat. No. TKG0348) were cultured in DMEM medium (REF. 11965-092 manufactured by GIBCO/Thermo Fisher Scientific Inc.) containing 10% FBS (REF. 10082-147 manufactured by GIBCO/Thermo Fisher Scientific Inc.), 1% penicillin/streptomycin/amphotericin B (REF. 15240-096 manufactured by GIBCO/Thermo Fisher Scientific Inc.), and 1 mM sodium pyruvate (REF. 11360-070 manufactured by GIBCO/Thermo Fisher Scientific Inc.) and adjusted to 1.0×10^7 cells/mL with PBS (REF. 10010-031 manufactured by GIBCO/Thermo Fisher Scientific Inc.). The prepared cell suspension was subcutaneously injected at 0.1 mL/mouse to the right abdomens of C57BL/6 mice (female, supplied by Japan SLC, Inc.). After rearing for a certain period, the long diameter (mm) and short diameter (mm) of tumor were measured with electronic calipers (manufactured by Mitsutoyo Corp., Cat. 500-712-10), and the tumor volume was calculated according to the following expression: Tumor volume (mm^3)=(Long diameter)×(Short diameter)×(Short diameter)×0.5
Individuals whose tumor volume was within the range of 50 to 200 mm^3 were selected and grouped such that the tumor volume was almost equivalent, then an anti-PD-1 antibody (manufactured by Bio X Cell) at 250 μg/mouse or Rat IgG2a (manufactured by Bio X Cell) at 250 μg/mouse was intraperitoneally administered, and further a test compound (25 mg/kg or 100 mg/kg) or only a solvent was orally administered to each group. The initial day of the start of administration was defined as day 0, and the anti-PD-1 antibody or Rat IgG2a were intraperitoneally administered on day 0 and day 3, and the test compound or only the solvent was orally administered once a day from day 0 to day 6. On day 7, the long diameter and short diameter of tumor were measured, and the tumor volume was calculated.

Where [3] appears, read: test compound oral (25 mg/kg or 100 mg/kg) once a day day 0 to 6 + Rat IgG2a 250 μg/mouse i.p. day 0 and 3, vs Rat IgG2a + solvent group.
[4] abbreviates: test compound oral (25 mg/kg or 100 mg/kg) once a day day 0 to 6 in combination with anti-PD-1 antibody 250 μg/mouse i.p. day 0 and 3.

As to `Cc1ccccc1NC(=O)N1Cc2c(NC(=O)C3([Si](C)(C)C)CCC3)n[nH]c2C1(C)C` [II-21, 6,6-Dimethyl-N-(o-tolyl)-3-[1-(trimethylsilyl)cyclobutanecarboxamido]-4,6-dihydropyrrolo[3,4-c]pyrazole-5(1H)-carboxamide], the GI50 in assay [1] is ≤ 2 µM. Turning to `CC1(C)c2[nH]nc(NC(=O)C3([Si](C)(C)C)CCC3)c2CN1C(=O)Nc1c(F)ccc2cc(Cl)oc12` [II-1063, N-(2-Chloro-6-fluorobenzofuran-7-yl)-6,6-dimethyl-3-[1-(trimethylsilyl)cyclobutanecarboxamido]-4,6-dihydropyrrolo[3,4-c]pyrazole-5(1H)-carboxamide], in assay [1], the GI50 was ≤ 2 µM. Further, the “Rate of inhibition of increase in tumor volume” value (“Rate of inhibition of increase” below) in assay [2] (setting [3]) is “D (10% or more and less than 30%)”; in assay [2] (setting [4]) it was “B (50% or more and less than 70%)”. With `CC1(C)c2[nH]nc(NC(=O)C3([Si](C)(C)C)CCC3)c2CN1C(=O)Nc1c(F)ccc2ccoc12` [II-1049, N-(6-Fluorobenzofuran-7-yl)-6,6-dimethyl-3-[1-(trimethylsilyl)cyclobutanecarboxamido]-4,6-dihydropyrrolo[3,4-c]pyrazole-5(1H)-carboxamide], the GI50 in assay [1] was ≤ 2 µM.

For `Cc1cc2ccc(F)c(NC(=O)N3Cc4c(NC(=O)C5([Si](C)(C)C)CCC5)n[nH]c4C3(C)C)c2o1` [II-1059, N-(6-Fluoro-2-methylbenzofuran-7-yl)-6,6-dimethyl-3-[1-(trimethylsilyl)cyclobutanecarboxamido]-4,6-dihydropyrrolo[3,4-c]pyrazole-5(1H)-carboxamide], the GI50 in assay [1] was ≤ 2 µM. As to `Cc1ccc(F)cc1NC(=O)N1Cc2c(NC(=O)C3([Si](C)(C)C)CCC3)n[nH]c2C1(C)C` [II-361, N-(5-Fluoro-2-methylphenyl)-6,6-dimethyl-3-[1-(trimethylsilyl)cyclobutanecarboxamido]-4,6-dihydropyrrolo[3,4-c]pyrazole-5(1H)-carboxamide], the concentration for 50% growth inhibition (GI50) in assay [1] is ≤ 2 µM.

As to `Cc1ccc(C)c(NC(=O)N2Cc3c(NC(=O)C4([Si](C)(C)C)CCC4)n[nH]c3C2(C)C)c1F` [II-669, N-(2-Fluoro-3,6-dimethylphenyl)-6,6-dimethyl-3-[1-(trimethylsilyl)cyclobutanecarboxamido]-4,6-dihydropyrrolo[3,4-c]pyrazole-5(1H)-carboxamide], the GI50 in assay [1] is ≤ 2 µM. Regarding `Cc1cccc(Br)c1NC(=O)N1Cc2c(NC(=O)C3([Si](C)(C)C)CCC3)n[nH]c2C1(C)C` [II-299, N-(2-Bromo-6-methylphenyl)-6,6-dimethyl-3-[1-(trimethylsilyl)cyclobutanecarboxamido]-4,6-dihydropyrrolo[3,4-c]pyrazole-5(1H)-carboxamide], in assay [1], the GI50 is ≤ 2 µM. Take `Cc1cccc(Cl)c1NC(=O)N1Cc2c(NC(=O)C3([Si](C)(C)C)CCC3)n[nH]c2C1(C)C` [II-215, N-(2-Chloro-6-methylphenyl)-6,6-dimethyl-3-[1-(trimethylsilyl)cyclobutanecarboxamido]-4,6-dihydropyrrolo[3,4-c]pyrazole-5(1H)-carboxamide]: in assay [1], the GI50 was ≤ 2 µM. Moreover, the “Rate of inhibition of increase” value is “B (50% or more and less than 70%)” in assay [2] (setting [3]); “A (70% or more and less than 90%)” in assay [2] (setting [4]). For `CC1(C)c2[nH]nc(NC(=O)C3([Si](C)(C)C)CCC3)c2CN1C(=O)Nc1c(F)cccc1Cl` [II-113, N-(2-Chloro-6-fluorophenyl)-6,6-dimethyl-3-[1-(trimethylsilyl)cyclobutanecarboxamido]-4,6-dihydropyrrolo[3,4-c]pyrazole-5(1H)-carboxamide], the GI50 in assay [1] is ≤ 2 µM. Turning to `Cc1ccc(C)c(NC(=O)N2Cc3c(NC(=O)C4([Si](C)(C)C)CCC4)n[nH]c3C2(C)C)c1` [II-379, N-(2,5-Dimethylphenyl)-6,6-dimethyl-3-[1-(trimethylsilyl)cyclobutanecarboxamido]-4,6-dihydropyrrolo[3,4-c]pyrazole-5(1H)-carboxamide], the concentration for 50% growth inhibition (GI50) in assay [1] was ≤ 2 µM. Also, the “Rate of inhibition of increase” value was “B (50% or more and less than 70%)” in assay [2] (setting [3]); “A (70% or more and less than 90%)” in assay [2] (setting [4]).
